Reference: PubChem BioAssay AID1745844 (Carcinogenic Potency Database (CPDB), 2022)
Activity calls are given as the source filed them. No rule for the calls is given here.

Test system: rodent lifetime carcinogenesis bioassay, tumor incidence TD50
Assay: chronic cancer bioassays in animals – CPDB, compiled studies (AID 1745844)

SMILES: CN(N=O)c1ccc(C=Cc2ccnc3ccccc23)cc1
- TD50 (rat, strain Fischer, females, in feed, site: liver, lesion: hyperplastic nodule, dosed 34 weeks, study length 52 weeks): 0.468 mg/kg/day
- TD50 (rat, strain Fischer, males, in feed, site: liver, lesion: carcinoma, dosed 34 weeks, study length 52 weeks): 4.37 mg/kg/day
- TD50 (rat, strain Fischer, males, in feed, site: liver, lesion: hyperplastic nodule, dosed 34 weeks, study length 52 weeks): 1.38 mg/kg/day

SMILES: COC(=O)[C@H]1[C@H]2C[C@@H]3c4[nH]c5cc(OC)ccc5c4CCN3C[C@H]2C[C@@H](OC(=O)c2cc(OC)c(OC)c(OC)c2)[C@@H]1OC
- TD50 (mouse, strain B6C3F1, females, in feed, site: any site (literature study), lesion: several types, types named in the paper, dosed 103 weeks, study length 104 weeks): 6.42 mg/kg/day
- TD50 (mouse, strain B6C3F1, females, in feed, site: lung, lesion: alveolar/bronchiolar adenoma + alveolar/bronchiolar carcinoma, dosed 103 weeks, study length 104 weeks): 54.5 mg/kg/day
- TD50 (mouse, strain B6C3F1, females, in feed, site: mammary gland, lesion: all tumors, dosed 103 weeks, study length 104 weeks): 3.58 mg/kg/day
- TD50 (mouse, strain B6C3F1, males, in feed, site: liver, lesion: hepatocellular adenoma + hepatocellular carcinoma + neoplastic nodule, dosed 103 weeks, study length 104 weeks): 5.46 mg/kg/day
- TD50 (mouse, strain B6C3F1, males, in feed, site: seminal vesicle, lesion: undifferentiated carcinoma, dosed 103 weeks, study length 104 weeks): 8.39 mg/kg/day
- TD50 (mouse, strain C3H (MTV+), females, in feed, site: mammary gland, lesion: adenocarcinoma, dosed 104 weeks, study length 104 weeks): 0.0342 mg/kg/day
- TD50 (rat, strain Fischer 344, females, in feed, site: any site (literature study), lesion: several types, types named in the paper, dosed 103 weeks, study length 104 weeks): 0.727 mg/kg/day (inactive)
- TD50 (rat, strain Fischer 344, males, in feed, site: adrenal gland, lesion: pheochromocytoma + pheochromocytoma, malignant, dosed 103 weeks, study length 104 weeks): 0.306 mg/kg/day
- TD50 (rat, strain Fischer 344, males, in feed, site: liver, lesion: hepatocellular adenoma + hepatocellular carcinoma + neoplastic nodule, dosed 103 weeks, study length 104 weeks): 6.77 mg/kg/day
- carcinogen call (rat, strain Wistar, females, in feed, site: mammary gland, lesion: fibroadenoma, dosed 75 weeks, study length 75 weeks): negative (inactive)
- carcinogen call (rat, strain Wistar, females, in feed, site: pituitary gland, lesion: several types, types named in the paper, dosed 75 weeks, study length 75 weeks): negative (inactive)
- TD50 (rat, strain Wistar, males, in feed, site: pituitary gland, lesion: adenoma, dosed 75 weeks, study length 75 weeks): 38.3 mg/kg/day (inactive)

SMILES: Cc1cc(Cc2cc(C)cc(C(C)(C)C)c2O)c(O)c(C(C)(C)C)c1
- carcinogen call (rat, strain Wistar, females, in feed, site: liver, lesion: one or several types, types not named, dosed 52 weeks, study length 52 weeks): negative (inactive)
- carcinogen call (rat, strain Wistar, females, in feed, site: liver, lesion: one or several types, types not named, dosed 78 weeks, study length 78 weeks): negative (inactive)
- carcinogen call (rat, strain Wistar, males, in feed, site: liver, lesion: hepatocellular adenoma, dosed 78 weeks, study length 78 weeks): negative (inactive)
- carcinogen call (rat, strain Wistar, males, in feed, site: liver, lesion: one or several types, types not named, dosed 52 weeks, study length 52 weeks): negative (inactive)
- TD50 (rat, strain Wistar, males, in feed, site: testis, lesion: interstitial-cell tumor, dosed 52 weeks, study length 52 weeks): 44.5 mg/kg/day (inactive)
- TD50 (rat, strain Wistar, males, in feed, site: testis, lesion: interstitial-cell tumor, dosed 78 weeks, study length 78 weeks): 36.6 mg/kg/day (inactive)

SMILES: CC(=O)N[C@@H](CS)C(=O)O
- carcinogen call (rat, strain Fischer 344, males, in feed, site: liver, lesion: several types, types named in the paper, dosed 98 weeks, study length 98 weeks): negative (inactive)

SMILES: CC(C)C/C=N/N(C)C=O
- TD50 (mouse, strain Swiss albino, females, by gavage, site: gall bladder, lesion: adenocarcinoma, dosed 53 weeks, study length 127 weeks): 151 mg/kg/day
- TD50 (mouse, strain Swiss albino, females, by gavage, site: gall bladder, lesion: adenoma, dosed 53 weeks, study length 127 weeks): 36.5 mg/kg/day
- TD50 (mouse, strain Swiss albino, females, by gavage, site: gall bladder, lesion: several types, types named in the paper, dosed 53 weeks, study length 127 weeks): 28.9 mg/kg/day
- TD50 (mouse, strain Swiss albino, females, by gavage, site: liver, lesion: hepatocellular carcinoma, dosed 53 weeks, study length 127 weeks): 74.6 mg/kg/day
- TD50 (mouse, strain Swiss albino, females, by gavage, site: liver, lesion: hepatoma, dosed 53 weeks, study length 127 weeks): 9.27 mg/kg/day
- TD50 (mouse, strain Swiss albino, females, by gavage, site: liver, lesion: several types, types named in the paper, dosed 53 weeks, study length 127 weeks): 7.9 mg/kg/day
- TD50 (mouse, strain Swiss albino, females, by gavage, site: lung, lesion: adenocarcinoma, dosed 53 weeks, study length 127 weeks): 8.7 mg/kg/day
- TD50 (mouse, strain Swiss albino, females, by gavage, site: lung, lesion: adenoma, dosed 53 weeks, study length 127 weeks): 2.39 mg/kg/day
- TD50 (mouse, strain Swiss albino, females, by gavage, site: lung, lesion: several types, types named in the paper, dosed 53 weeks, study length 127 weeks): 1.99 mg/kg/day
- TD50 (mouse, strain Swiss albino, males, by gavage, site: gall bladder, lesion: adenoma, dosed 53 weeks, study length 119 weeks): 46.1 mg/kg/day
- TD50 (mouse, strain Swiss albino, males, by gavage, site: liver, lesion: hepatocellular carcinoma, dosed 53 weeks, study length 119 weeks): 34.2 mg/kg/day
- TD50 (mouse, strain Swiss albino, males, by gavage, site: liver, lesion: hepatoma, dosed 53 weeks, study length 119 weeks): 8 mg/kg/day
- TD50 (mouse, strain Swiss albino, males, by gavage, site: liver, lesion: several types, types named in the paper, dosed 53 weeks, study length 119 weeks): 5.97 mg/kg/day
- TD50 (mouse, strain Swiss albino, males, by gavage, site: lung, lesion: adenocarcinoma, dosed 53 weeks, study length 119 weeks): 10.7 mg/kg/day
- TD50 (mouse, strain Swiss albino, males, by gavage, site: lung, lesion: adenoma, dosed 53 weeks, study length 119 weeks): 3.3 mg/kg/day
- TD50 (mouse, strain Swiss albino, males, by gavage, site: lung, lesion: several types, types named in the paper, dosed 53 weeks, study length 119 weeks): 2.53 mg/kg/day
- TD50 (mouse, strain Swiss albino, males, by gavage, site: preputial gland, lesion: several types, types named in the paper, dosed 53 weeks, study length 119 weeks): 4.36 mg/kg/day
- TD50 (mouse, strain Swiss albino, males, by gavage, site: preputial gland, lesion: squamous-cell carcinoma, dosed 53 weeks, study length 119 weeks): 5.59 mg/kg/day
- TD50 (mouse, strain Swiss albino, males, by gavage, site: preputial gland, lesion: squamous-cell papilloma, dosed 53 weeks, study length 119 weeks): 34.2 mg/kg/day

SMILES: O=NN1CC=CCC1
- TD50 (rat, strain Fischer 344, females, in drinking water, site: esophagus, lesion: several types, types named in the paper, dosed 25 weeks, study length 128 weeks): 0.216 mg/kg/day
- TD50 (rat, strain Fischer 344, females, in drinking water, site: esophagus, lesion: several types, types named in the paper, dosed 70 weeks, study length 100 weeks): 0.127 mg/kg/day
- TD50 (rat, strain Fischer 344, females, in drinking water, site: esophagus, lesion: several types, types named in the paper, dosed 100 weeks, study length 128 weeks): 0.0669 mg/kg/day
- TD50 (rat, strain Fischer 344, females, in drinking water, site: esophagus, lesion: squamous-cell carcinoma, dosed 100 weeks, study length 128 weeks): 0.43 mg/kg/day
- TD50 (rat, strain Fischer 344, females, in drinking water, site: liver, lesion: hemangiosarcoma, dosed 25 weeks, study length 128 weeks): 4.04 mg/kg/day
- carcinogen call (rat, strain Fischer 344, females, in drinking water, site: liver, lesion: hepatocellular carcinoma, dosed 25 weeks, study length 128 weeks): positive
- TD50 (rat, strain Fischer 344, females, in drinking water, site: liver, lesion: hyperplastic nodule, dosed 70 weeks, study length 100 weeks): 2.15 mg/kg/day
- TD50 (rat, strain Fischer 344, females, in drinking water, site: liver, lesion: hyperplastic nodule, dosed 100 weeks, study length 128 weeks): 0.284 mg/kg/day
- carcinogen call (rat, strain Fischer 344, females, in drinking water, site: liver, lesion: several types, types named in the paper, dosed 25 weeks, study length 128 weeks): positive
- TD50 (rat, strain Fischer 344, females, in drinking water, site: liver, lesion: several types, types named in the paper, dosed 100 weeks, study length 128 weeks): 0.132 mg/kg/day
- carcinogen call (rat, strain Fischer 344, females, in drinking water, site: stomach, nonglandular, lesion: basal-cell papilloma, dosed 25 weeks, study length 128 weeks): positive
- TD50 (rat, strain Fischer 344, females, in drinking water, site: stomach, nonglandular, lesion: basal-cell papilloma, dosed 100 weeks, study length 128 weeks): 0.0551 mg/kg/day
- TD50 (rat, strain Fischer 344, females, in drinking water, site: upper gastrointestinal tract, lesion: carcinoma, dosed 25 weeks, study length 128 weeks): 0.271 mg/kg/day
- TD50 (rat, strain Fischer 344, females, in drinking water, site: upper gastrointestinal tract, lesion: carcinoma, dosed 70 weeks, study length 100 weeks): 0.0966 mg/kg/day
- TD50 (rat, strain Fischer 344, females, in drinking water, site: upper gastrointestinal tract, lesion: carcinoma, dosed 100 weeks, study length 128 weeks): 0.0856 mg/kg/day
- TD50 (rat, strain Fischer 344, females, in drinking water, site: upper gastrointestinal tract, lesion: several types, types named in the paper, dosed 25 weeks, study length 128 weeks): 0.142 mg/kg/day
- carcinogen call (rat, strain Fischer 344, females, in drinking water, site: upper gastrointestinal tract, lesion: several types, types named in the paper, dosed 70 weeks, study length 100 weeks): positive
- TD50 (rat, strain Fischer 344, females, in drinking water, site: upper gastrointestinal tract, lesion: several types, types named in the paper, dosed 100 weeks, study length 128 weeks): 0.0374 mg/kg/day

SMILES: Nc1cc([N+](=O)[O-])ccc1O
- carcinogen call (mouse, strain B6C3F1, females, by gavage, site: any site (literature study), lesion: several types, types named in the paper, dosed 103 weeks, study length 105 weeks): negative (inactive)
- TD50 (mouse, strain B6C3F1, females, by gavage, site: liver, lesion: hepatocellular adenoma + hepatocellular carcinoma + neoplastic nodule, dosed 103 weeks, study length 105 weeks): 2160 mg/kg/day
- TD50 (mouse, strain B6C3F1, females, by gavage, site: lung, lesion: alveolar/bronchiolar adenoma + alveolar/bronchiolar carcinoma, dosed 103 weeks, study length 105 weeks): 2180 mg/kg/day
- TD50 (mouse, strain B6C3F1, males, by gavage, site: abdominal cavity + liver + mesenteric lymph node + pancreas + spleen + subcutaneous tissue, lesion: hemangioma + hemangiosarcoma, dosed 103 weeks, study length 105 weeks): 798 mg/kg/day (inactive)
- TD50 (mouse, strain B6C3F1, males, by gavage, site: any site (literature study), lesion: several types, types named in the paper, dosed 103 weeks, study length 105 weeks): 582 mg/kg/day
- carcinogen call (rat, strain Fischer 344, females, by gavage, site: any site (literature study), lesion: several types, types named in the paper, dosed 103 weeks, study length 105 weeks): negative (inactive)
- TD50 (rat, strain Fischer 344, males, by gavage, site: any site (literature study), lesion: several types, types named in the paper, dosed 103 weeks, study length 105 weeks): 84.1 mg/kg/day
- TD50 (rat, strain Fischer 344, males, by gavage, site: kidney cortex, lesion: adenoma, NOS, dosed 103 weeks, study length 105 weeks): 839 mg/kg/day
- TD50 (rat, strain Fischer 344, males, by gavage, site: liver, lesion: hepatocellular adenoma + hepatocellular carcinoma + neoplastic nodule, dosed 103 weeks, study length 105 weeks): 1300 mg/kg/day
- TD50 (rat, strain Fischer 344, males, by gavage, site: liver, lesion: hepatocellular carcinoma + neoplastic nodule, dosed 103 weeks, study length 105 weeks): 1300 mg/kg/day
- TD50 (rat, strain Fischer 344, males, by gavage, site: subcutaneous tissue, lesion: fibroma, dosed 103 weeks, study length 105 weeks): 584 mg/kg/day
- TD50 (rat, strain Fischer 344, males, by gavage, site: subcutaneous tissue, lesion: fibrosarcoma + fibroma + neurofibrosarcoma + sarcoma, NOS, dosed 103 weeks, study length 105 weeks): 458 mg/kg/day
- TD50 (rat, strain Fischer 344, males, by gavage, site: testis, lesion: interstitial-cell tumor, dosed 103 weeks, study length 105 weeks): 68.2 mg/kg/day

SMILES: Nc1nnc(-c2ccc([N+](=O)[O-])o2)s1
- TD50 (rat, strain Sprague-Dawley, females, in feed, site: any site (literature study), lesion: several types, types named in the paper, dosed 45 weeks, study length 66 weeks): 0.662 mg/kg/day
- TD50 (rat, strain Sprague-Dawley, females, in feed, site: forestomach, lesion: squamous-cell papilloma, dosed 45 weeks, study length 66 weeks): 23.7 mg/kg/day
- TD50 (rat, strain Sprague-Dawley, females, in feed, site: kidney/pelvis, lesion: transitional-cell carcinoma, dosed 45 weeks, study length 66 weeks): 73.4 mg/kg/day
- TD50 (rat, strain Sprague-Dawley, females, in feed, site: lung, lesion: alveolar-cell carcinoma, dosed 45 weeks, study length 66 weeks): 73.4 mg/kg/day
- TD50 (rat, strain Sprague-Dawley, females, in feed, site: mammary gland, lesion: adenocarcinoma, dosed 45 weeks, study length 66 weeks): 1.2 mg/kg/day
- TD50 (rat, strain Sprague-Dawley, females, in feed, site: mammary gland, lesion: several types, types named in the paper, dosed 45 weeks, study length 66 weeks): 0.662 mg/kg/day

SMILES: CC1=C(C)C(=O)C(C(CCCCCC(=O)O)c2ccccc2)=C(C)C1=O (stereo not given)
- carcinogen call (rat, strain Fischer 344/Jcl, females, in feed, site: liver, lesion: one or several types, types not named, dosed 52 weeks, study length 52 weeks): negative (inactive)
- carcinogen call (rat, strain Fischer 344/Jcl, males, in feed, site: liver, lesion: one or several types, types not named, dosed 52 weeks, study length 52 weeks): negative (inactive)
